# Measured values published in ChEMBL document CHEMBL1201862, “PubChem BioAssay data set” (2004).
# Activity calls are given as the source filed them.
# Key:
# Beta-galactosidase = Beta-galactosidase (Escherichia coli, UniProt Q8VNN2); test: detection-enzyme interference by beta-gal modulators – biochemical, E. coli enzyme, set 3, artefact control for CCR6 antagonist project, dose response (AID 504712); type: functional
# CHO = CHO cell viability loss, potency – luminescence, cytotoxicity control for TLR9-MyD88 binding inhibitor project, dose response (AID 588339); type: functional, cell-based, hamster; conditions: Cricetulus griseus;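 further: CHO cells stably coexpressing TLR9 and MyD88 fusions from primary screen; compound exposure lasted 48 hours before viability readout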
# [1] = molecular target: Heat shock protein HSP 90-alpha (Homo sapiens, UniProt P07900); type: functional, organism-based
# Beta Lactamase [2] = molecular target: T1, Beta Lactamase (Pseudomonas aeruginosa, UniProt Q932Y6); test: BLA reporter interference, concentration series – BLA reporter cells, FRET fluorescence, artefact control for TLR9-MyD88 binding inhibitor project, dose response (AID 588341); type: cell-based;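 further: cell based assay in CHO-K1 cells stably expressing beta-lactamase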
# [3] = molecular target: T2, Polyadenylate-binding protein 1 (Homo sapiens, UniProt P11940); test: MLLE binding blockers, Cy5 peptide tracer – biochemical, fluorescence polarization, Cy5-PAM2 peptide, secondary, miRNA deadenylation inhibitor project, dose response (AID 602260); type: functional; conditions: read-out: IC50_Mean
# [4] = reduction of Shn3 3'UTR-driven luciferase in osteoblasts – cell-based, Clone20 osteoblasts, firefly luciferase, cherry-picked, dose response (AID 624132); type: functional;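 further: firefly luciferase luminescence from reporter carrying the Shn3 3'UTR in osteoblasts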
# [5] = molecular target: T2, Polyadenylate-binding protein 1; test: MLLE domain peptide-binding blockers, IC50 – biochemical, fluorescence polarization, FITC-PAM2 peptide, dose response (AID 602259); type: functional; conditions: read-out: IC50_Mean
# [6] = loss of viability in HepG2 cells – cell-based, CellTiter-Glo, cherry-picked, cytotoxicity control for Shn3 inhibitor project, dose response (AID 624134); type: functional
# [7] = non-specific 3'UTR reporter inhibition in Clone20-Shn3RL – cell-based, Renilla luciferase, cherry-picked, counter-screen for Shn3 inhibitor project, dose response (AID 624133); type: functional
# [8] = Fluorescence-based cell-based high throughput dose response assay for inhibitors of the interaction of nucleotide-binding oligomerization domain containing 2 (NOD2) and the receptor-interacting serine-threonine kinase 2 (RIPK2).; type: functional; conditions: Homo sapiens
# Beta Lactamase [9] = molecular target: T1, Beta Lactamase; test: BLA reporter interference, concentration series – BLA reporter cells, FRET fluorescence, artefact control for NOD2-RIPK2 interaction inhibitor project, dose response (AID 651552); type: functional, cell-based
# [10] = molecular target: Luciferin 4-monooxygenase (Photinus pyralis, UniProt P08659); test: inhibition of purified Photinus pyralis luciferase – biochemical, luminescence, dose response (AID 1891)
# [11] = Luminescence Cell-Based Dose Confirmation HTS to Identify Inhibitors of Platelet Dense Granule Release. [Related pubchem assays: 1663 (Primary HTS), 1678 (Summary of Project)]; type: functional
# [12] = PAR1 agonist-induced platelet activation inhibition – cell-based, fluorescence, flow cytometry, human platelets, dose response (AID 2511); type: functional
# [13] = blockers of SFLLRN-triggered platelet ATP secretion – cell-based, human platelets, luminescence, dry powder, dose response (AID 493100); type: functional
# [14] = Luminescence Cell-Based Dose Response Follow up to Identify Inhibitors of Platelet Dense Granule Release. [Related pubchem assays (depositor defined):AID1663, AID1678, AID2398]; type: functional
# CHO-K1 = test: Counterscreen for antagonists of the orexin 1 receptor (OX1R; HCRTR1): Homogeneous time resolved fluorescence (HTRF)-based cell-based dose response assay to identify antagonists of the parental CHO-K1 cell line. [Related pubchem assays (depositor defined):AID434989, AID435008, AID463079, AID485270, AID492963, AID492964, AID492965, AID493232, AID504699, AID504701]; type: functional; conditions: Cricetulus griseus;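 further: potency for inhibition of ATP-stimulated IP1 production as antagonists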
# [15] = Counterscreen for antagonists of the orexin 1 receptor (OX1R; HCRTR1): Fluorescence-based cell-based high throughput dose response assay to identify antagonists of the parental CHO cell line. [Related pubchem assays (depositor defined):AID434989, AID435008, AID463079, AID485270, AID492963, AID492964, AID492965, AID493232, AID504699, AID504701]; type: functional
# [16] = molecular target: T3, Orexin/Hypocretin receptor type 1 (Homo sapiens, UniProt O43613); test: Homogeneous Time Resolved Fluorescence (HTRF)-based cell-based high throughput dose response assay for antagonists of the orexin 1 receptor (OX1R; HCRTR1). [Related pubchem assays (depositor defined):AID434989, AID435008, AID463079, AID485270, AID492963, AID492964, AID492965, AID493232, AID504717, AID504718]; type: functional
# [17] = molecular target: T3, Orexin/Hypocretin receptor type 1; test: Fluorescence-based cell-based high throughput dose response assay for antagonists of the orexin 1 receptor (OX1R; HCRTR1). [Related pubchem assays (depositor defined):AID434989, AID435008, AID463079, AID485270, AID492963, AID492964, AID492965, AID493232, AID504717, AID504718]; type: functional
# Orexin receptor type 2 [18] = molecular target: T4, Orexin receptor type 2 (Homo sapiens, UniProt O43614); test: Counterscreen assay for antagonists of the orexin 1 receptor (OX1R; HCRTR1): Fluorescence-based cell-based dose response assay for antagonists of the orexin 2 receptor (OX2R; HCRTR2), run by assay provider.; type: functional
# Orexin receptor type 2 [19] = molecular target: T4, Orexin receptor type 2; test: Counterscreen assay for antagonists of the orexin 1 receptor (OX1R; HCRTR1): Homogeneous Time Resolved Fluorescence (HTRF)-based cell-based dose response assay for antagonists of the orexin 2 receptor (OX2R; HCRTR2), run by assay provider.; type: functional
# Cytochrome P450 2C9 = Cytochrome P450 2C9 (Homo sapiens, UniProt P11712)
# [20] = Mcl1-dependent cancer cell viability – HMC-1-8 cells, luminescence, dry powder, selectivity assay for A1 inhibitor project, dose response (AID 504415); type: functional, cell-based; conditions: Homo sapiens
# [21] = molecular target: T5, Sentrin-specific protease 8 (Homo sapiens, UniProt Q96LD8); test: inhibition of human SENP8 cleavage activity – biochemical, luminescence, SAR follow-up (AID 504501); type: functional
# T5 sequence (Q96LD8 whole entry): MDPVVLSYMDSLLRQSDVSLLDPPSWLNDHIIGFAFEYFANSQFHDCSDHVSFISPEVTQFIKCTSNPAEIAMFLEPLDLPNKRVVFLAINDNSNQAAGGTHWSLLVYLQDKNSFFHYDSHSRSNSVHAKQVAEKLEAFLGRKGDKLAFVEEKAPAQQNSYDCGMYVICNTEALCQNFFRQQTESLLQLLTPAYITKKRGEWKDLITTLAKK
# Caspase-3 = molecular target: T6, Caspase-3 (Homo sapiens, UniProt P42574); test: SAR Analysis of small molecule inhibitors of Sentrin-specific proteases (SENPs) using a Caspase-3 Selectivity assay. [Related pubchem assays (depositor defined):AID2540, AID2599, AID434973, AID489001]; type: functional
# T6 sequence (P42574 whole entry): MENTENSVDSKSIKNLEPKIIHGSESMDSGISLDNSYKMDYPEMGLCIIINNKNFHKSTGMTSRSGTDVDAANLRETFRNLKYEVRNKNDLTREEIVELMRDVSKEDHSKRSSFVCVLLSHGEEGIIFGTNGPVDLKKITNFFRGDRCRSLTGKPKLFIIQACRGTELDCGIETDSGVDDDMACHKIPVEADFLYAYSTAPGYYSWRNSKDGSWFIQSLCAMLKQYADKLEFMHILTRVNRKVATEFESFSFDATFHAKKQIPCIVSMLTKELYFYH
# [22] = molecular target: T7, Sentrin-specific protease 6 (Homo sapiens, UniProt Q9GZR1); test: SAR Analysis of small molecule inhibitors of Sentrin-specific protease 6 (SENP6) using a Luminescent assay. [Related pubchem assays (depositor defined):AID2582, AID2599]; type: functional
# T7 sequence (Q9GZR1 whole entry): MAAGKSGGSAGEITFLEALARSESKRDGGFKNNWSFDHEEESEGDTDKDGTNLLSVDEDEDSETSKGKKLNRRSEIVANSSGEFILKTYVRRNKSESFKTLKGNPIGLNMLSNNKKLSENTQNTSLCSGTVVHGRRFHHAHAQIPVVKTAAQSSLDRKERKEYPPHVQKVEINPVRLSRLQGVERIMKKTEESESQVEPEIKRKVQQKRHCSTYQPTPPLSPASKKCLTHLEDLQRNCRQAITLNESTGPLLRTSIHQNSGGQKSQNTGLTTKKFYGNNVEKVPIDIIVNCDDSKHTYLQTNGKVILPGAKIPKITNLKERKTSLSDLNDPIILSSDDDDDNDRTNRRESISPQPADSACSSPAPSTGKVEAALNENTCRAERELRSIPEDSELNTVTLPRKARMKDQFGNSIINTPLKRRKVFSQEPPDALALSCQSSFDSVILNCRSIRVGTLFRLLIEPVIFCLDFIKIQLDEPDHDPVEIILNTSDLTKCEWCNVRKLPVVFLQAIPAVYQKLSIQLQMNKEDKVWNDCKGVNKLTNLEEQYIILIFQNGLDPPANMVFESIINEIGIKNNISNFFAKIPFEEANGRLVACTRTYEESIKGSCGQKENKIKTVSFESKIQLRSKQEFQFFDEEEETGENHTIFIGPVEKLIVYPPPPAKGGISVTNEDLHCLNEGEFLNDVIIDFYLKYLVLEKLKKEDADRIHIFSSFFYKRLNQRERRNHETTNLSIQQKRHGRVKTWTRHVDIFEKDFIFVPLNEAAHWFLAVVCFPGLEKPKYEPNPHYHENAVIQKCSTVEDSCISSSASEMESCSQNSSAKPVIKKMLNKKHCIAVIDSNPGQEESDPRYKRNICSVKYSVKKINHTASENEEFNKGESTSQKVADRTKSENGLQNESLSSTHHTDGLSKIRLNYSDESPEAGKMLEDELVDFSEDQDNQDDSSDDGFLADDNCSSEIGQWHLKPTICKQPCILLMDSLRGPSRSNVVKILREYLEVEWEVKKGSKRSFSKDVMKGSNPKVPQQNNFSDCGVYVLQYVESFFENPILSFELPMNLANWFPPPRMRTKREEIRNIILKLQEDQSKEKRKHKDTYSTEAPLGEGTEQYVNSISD
# [23] = molecular target: T8, Sentrin-specific protease 7 (Homo sapiens, UniProt Q9BQF6); test: inhibition of human SENP7 cleavage activity – biochemical, luminescence, SAR follow-up (AID 504497); type: functional
# T8 sequence (Q9BQF6 whole entry): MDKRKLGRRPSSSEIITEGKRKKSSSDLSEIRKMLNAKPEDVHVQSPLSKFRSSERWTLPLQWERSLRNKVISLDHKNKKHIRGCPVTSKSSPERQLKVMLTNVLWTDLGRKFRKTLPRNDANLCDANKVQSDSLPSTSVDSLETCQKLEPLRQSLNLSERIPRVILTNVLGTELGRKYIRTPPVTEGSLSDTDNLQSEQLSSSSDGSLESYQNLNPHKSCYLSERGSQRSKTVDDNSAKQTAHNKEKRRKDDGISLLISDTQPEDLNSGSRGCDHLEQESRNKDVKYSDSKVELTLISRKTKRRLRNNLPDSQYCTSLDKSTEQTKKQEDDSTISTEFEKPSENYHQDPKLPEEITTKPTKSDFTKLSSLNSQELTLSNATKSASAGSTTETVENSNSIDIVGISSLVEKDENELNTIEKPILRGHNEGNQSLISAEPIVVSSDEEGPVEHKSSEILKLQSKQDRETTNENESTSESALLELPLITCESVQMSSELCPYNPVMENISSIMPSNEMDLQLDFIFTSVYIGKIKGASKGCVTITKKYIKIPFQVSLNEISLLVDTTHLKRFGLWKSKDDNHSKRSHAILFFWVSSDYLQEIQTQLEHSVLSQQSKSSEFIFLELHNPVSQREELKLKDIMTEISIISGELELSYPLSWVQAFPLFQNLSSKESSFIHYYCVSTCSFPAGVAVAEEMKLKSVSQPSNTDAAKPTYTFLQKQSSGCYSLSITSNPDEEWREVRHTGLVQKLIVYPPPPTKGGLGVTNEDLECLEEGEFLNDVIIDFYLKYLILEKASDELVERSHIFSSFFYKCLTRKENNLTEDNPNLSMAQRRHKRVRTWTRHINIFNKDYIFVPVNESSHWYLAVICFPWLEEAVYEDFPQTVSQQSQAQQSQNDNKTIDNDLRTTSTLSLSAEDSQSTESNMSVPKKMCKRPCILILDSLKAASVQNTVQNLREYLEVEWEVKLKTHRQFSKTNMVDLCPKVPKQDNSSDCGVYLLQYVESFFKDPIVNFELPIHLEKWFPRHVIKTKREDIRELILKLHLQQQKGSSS
# T2 sequence (P11940 whole entry): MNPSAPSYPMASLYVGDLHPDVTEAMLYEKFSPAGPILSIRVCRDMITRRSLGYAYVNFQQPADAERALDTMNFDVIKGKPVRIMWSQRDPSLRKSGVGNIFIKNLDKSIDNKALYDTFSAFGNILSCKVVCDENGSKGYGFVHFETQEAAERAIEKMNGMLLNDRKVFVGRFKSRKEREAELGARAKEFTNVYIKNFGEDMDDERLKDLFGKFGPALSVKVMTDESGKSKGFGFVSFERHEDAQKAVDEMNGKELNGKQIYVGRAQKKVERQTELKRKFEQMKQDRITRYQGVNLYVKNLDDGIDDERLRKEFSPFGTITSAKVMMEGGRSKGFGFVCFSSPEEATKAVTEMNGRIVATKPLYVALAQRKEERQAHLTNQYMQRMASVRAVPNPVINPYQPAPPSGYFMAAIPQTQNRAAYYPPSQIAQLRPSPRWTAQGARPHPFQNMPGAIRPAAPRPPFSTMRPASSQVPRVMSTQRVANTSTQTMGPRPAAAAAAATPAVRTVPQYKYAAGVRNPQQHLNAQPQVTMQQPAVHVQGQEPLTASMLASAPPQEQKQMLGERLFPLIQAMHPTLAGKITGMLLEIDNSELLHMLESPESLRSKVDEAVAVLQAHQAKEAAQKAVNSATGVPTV
# T4 sequence (O43614 whole entry): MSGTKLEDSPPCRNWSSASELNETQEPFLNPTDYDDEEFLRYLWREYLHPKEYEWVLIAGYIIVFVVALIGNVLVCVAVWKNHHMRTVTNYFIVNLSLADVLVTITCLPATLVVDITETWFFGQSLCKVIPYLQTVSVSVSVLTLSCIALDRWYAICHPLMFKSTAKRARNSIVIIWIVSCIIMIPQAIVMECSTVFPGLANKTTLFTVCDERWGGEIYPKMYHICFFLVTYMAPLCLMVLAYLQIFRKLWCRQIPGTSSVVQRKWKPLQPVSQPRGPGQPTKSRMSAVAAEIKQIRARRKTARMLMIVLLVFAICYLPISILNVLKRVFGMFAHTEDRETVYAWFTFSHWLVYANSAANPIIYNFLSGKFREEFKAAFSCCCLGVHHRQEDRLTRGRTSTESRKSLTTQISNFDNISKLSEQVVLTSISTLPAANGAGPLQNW
# T3 sequence (O43613 whole entry): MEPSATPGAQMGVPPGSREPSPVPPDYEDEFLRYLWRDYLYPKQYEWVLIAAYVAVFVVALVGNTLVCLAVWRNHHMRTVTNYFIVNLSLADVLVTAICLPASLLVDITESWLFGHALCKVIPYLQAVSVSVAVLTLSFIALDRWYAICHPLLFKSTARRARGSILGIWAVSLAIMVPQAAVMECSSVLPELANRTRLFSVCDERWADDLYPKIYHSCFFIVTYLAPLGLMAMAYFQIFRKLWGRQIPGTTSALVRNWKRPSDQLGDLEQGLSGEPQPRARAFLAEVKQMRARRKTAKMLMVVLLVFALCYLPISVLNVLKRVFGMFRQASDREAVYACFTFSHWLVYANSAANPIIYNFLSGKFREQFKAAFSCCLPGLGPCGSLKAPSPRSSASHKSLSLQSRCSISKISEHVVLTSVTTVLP
# T1 sequence (Q932Y6 whole entry): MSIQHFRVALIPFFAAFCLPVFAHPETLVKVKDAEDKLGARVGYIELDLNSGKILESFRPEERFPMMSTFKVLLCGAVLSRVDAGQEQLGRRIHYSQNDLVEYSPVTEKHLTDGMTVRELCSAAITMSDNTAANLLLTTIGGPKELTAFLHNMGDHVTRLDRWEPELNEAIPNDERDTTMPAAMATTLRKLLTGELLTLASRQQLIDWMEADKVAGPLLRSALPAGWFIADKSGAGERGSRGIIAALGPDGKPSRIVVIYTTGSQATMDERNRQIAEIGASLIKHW
# Beta-galactosidase, sequence (Q8VNN2 whole entry, the tested form may be a part): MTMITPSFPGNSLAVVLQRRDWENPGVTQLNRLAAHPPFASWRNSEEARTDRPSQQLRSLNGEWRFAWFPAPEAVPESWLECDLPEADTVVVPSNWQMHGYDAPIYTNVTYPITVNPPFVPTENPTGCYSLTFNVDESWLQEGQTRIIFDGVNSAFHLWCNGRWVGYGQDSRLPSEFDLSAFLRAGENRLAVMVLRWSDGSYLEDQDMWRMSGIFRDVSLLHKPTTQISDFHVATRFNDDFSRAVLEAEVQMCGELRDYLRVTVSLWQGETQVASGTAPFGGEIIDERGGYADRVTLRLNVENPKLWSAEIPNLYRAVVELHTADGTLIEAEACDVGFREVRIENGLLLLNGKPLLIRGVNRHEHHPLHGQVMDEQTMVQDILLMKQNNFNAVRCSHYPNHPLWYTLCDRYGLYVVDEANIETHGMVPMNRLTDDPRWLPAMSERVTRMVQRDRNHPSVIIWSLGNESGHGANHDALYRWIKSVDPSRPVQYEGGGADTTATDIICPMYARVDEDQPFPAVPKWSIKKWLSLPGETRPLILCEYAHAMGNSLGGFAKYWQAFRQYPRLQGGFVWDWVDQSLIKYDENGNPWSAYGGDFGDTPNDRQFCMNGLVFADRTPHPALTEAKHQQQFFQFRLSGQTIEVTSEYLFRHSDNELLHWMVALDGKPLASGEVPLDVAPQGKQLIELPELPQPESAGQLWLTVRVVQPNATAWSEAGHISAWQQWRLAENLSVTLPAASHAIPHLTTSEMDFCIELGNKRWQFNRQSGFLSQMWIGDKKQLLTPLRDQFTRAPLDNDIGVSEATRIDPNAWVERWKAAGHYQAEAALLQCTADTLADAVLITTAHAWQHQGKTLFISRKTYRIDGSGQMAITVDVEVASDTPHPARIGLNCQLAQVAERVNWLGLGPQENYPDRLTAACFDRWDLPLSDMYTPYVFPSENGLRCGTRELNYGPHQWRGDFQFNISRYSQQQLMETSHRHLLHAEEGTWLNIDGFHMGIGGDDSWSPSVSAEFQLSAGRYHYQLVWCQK
# Luciferin 4-monooxygenase, sequence (P08659 whole entry): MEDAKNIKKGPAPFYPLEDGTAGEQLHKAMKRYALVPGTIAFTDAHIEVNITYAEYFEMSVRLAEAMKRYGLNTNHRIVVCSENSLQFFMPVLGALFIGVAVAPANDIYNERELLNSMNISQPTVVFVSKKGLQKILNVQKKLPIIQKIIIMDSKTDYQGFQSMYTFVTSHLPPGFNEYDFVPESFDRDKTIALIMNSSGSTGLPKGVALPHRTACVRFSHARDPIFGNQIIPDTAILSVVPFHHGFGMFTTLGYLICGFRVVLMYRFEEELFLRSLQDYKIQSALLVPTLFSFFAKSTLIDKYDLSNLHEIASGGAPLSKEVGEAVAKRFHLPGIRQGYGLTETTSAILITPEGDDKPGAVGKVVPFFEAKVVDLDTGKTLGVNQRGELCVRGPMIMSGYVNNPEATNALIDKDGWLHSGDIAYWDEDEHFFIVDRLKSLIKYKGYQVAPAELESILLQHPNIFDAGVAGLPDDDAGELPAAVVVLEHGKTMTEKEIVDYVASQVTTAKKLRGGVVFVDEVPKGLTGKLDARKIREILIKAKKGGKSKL
# Cytochrome P450 2C9, sequence (P11712 whole entry): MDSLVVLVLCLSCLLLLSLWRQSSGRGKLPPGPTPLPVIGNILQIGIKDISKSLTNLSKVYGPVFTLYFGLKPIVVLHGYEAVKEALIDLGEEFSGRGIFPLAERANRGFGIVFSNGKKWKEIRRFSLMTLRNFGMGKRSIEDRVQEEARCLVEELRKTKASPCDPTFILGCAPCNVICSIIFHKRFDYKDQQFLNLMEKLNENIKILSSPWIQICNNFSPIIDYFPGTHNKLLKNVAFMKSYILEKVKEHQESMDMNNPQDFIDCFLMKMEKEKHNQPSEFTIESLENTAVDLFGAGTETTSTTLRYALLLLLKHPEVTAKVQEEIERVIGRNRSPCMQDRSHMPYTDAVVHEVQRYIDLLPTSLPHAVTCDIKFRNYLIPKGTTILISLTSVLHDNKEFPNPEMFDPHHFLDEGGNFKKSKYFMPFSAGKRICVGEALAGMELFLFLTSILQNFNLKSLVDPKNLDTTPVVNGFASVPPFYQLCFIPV
structure (smiles),measurement,setting,value
O=C(c1ccccc1)c1ccccc1N1C(=O)C=CC1=O,IC50,Beta-galactosidase,> 66.6 µM (inactive)
same,IC50,CHO,2.78 µM (active)
same,AC50,[1],2.21 µM (active)
same,IC50,Beta Lactamase [2],15.3 µM (inactive)
same,IC50,[3],> 66 µM (inactive)
same,AC50,[4],16.7 µM (active)
same,IC50,[5],> 66 µM (inactive)
same,AC50,[6],24.6 µM (active)
same,AC50,[7],12.5 µM (active)
same,IC50,[8],1.99 µM (active)
same,IC50,Beta Lactamase [9],15.5 µM (inactive)
Cc1ccc(-n2c(N)c(C#N)c(-c3ccc(Cl)cc3)c(C#N)c2=O)cc1,EC50,[10],> 112 µM (not active)
same,EC50,[11],4.94 µM (active)
same,EC50,[12],< 3 µM (active)
same,AC50,[13],14.3 µM (active)
same,EC50,[14],0.623 µM (active)
CCn1c(SCC(=O)c2ccc3ccccc3c2)nnc1-c1cccs1,IC50,CHO-K1,> 66.2 µM (inactive)
same,IC50,[15],> 49.8 µM (inactive)
same,IC50,[16],6.66 µM (active)
same,IC50,[17],17.6 µM (inactive)
same,IC50,Orexin receptor type 2 [18],> 88.8 µM (inactive)
same,IC50,Orexin receptor type 2 [19],> 50 µM (inactive)
same,AC50,Cytochrome P450 2C9,17.8 µM (inconclusive)
Cn1c(=O)c([N+](=O)[O-])c(Nc2ccc(Cl)cc2)c2ccccc21,AC50,[20],> 350 µM (inactive)
CC(C)(C)CC(=O)Nc1ccc(-c2nc3cc(Cl)ccc3s2)cc1,IC50,[21],> 99 µM (inactive)
same,IC50,Caspase-3,> 99 µM (inactive)
same,IC50,[22],> 99 µM (inactive)
same,IC50,[23],> 99 µM (inactive)
